The source of these data is patent US20090099136A1 (PHARMASSET, INC., priority 2007, published 2009).

Where “and” joins values, the source holds several entries; their conditions need not be identical. Identical values can stand only once.

One data set relates to NL43 wild type virus. The data set is classed as cell-based, HIV. The note with it: read-out: EC50 (P4) (WT).

Usually EC50 stands for the concentration needed to bring the measured effect to its halfway point. Turning to `CCCCCOC(=O)C(C)NP(=O)(OCC1OCC(n2cc(C)c(=O)[nH]c2=O)O1)Oc1ccccc1` (mixture of isomers) [Example 17], the “Toxicity (Luciferase, 6d)” value with P4 CCR5-luc cells is given as above 100. In addition, the EC50 in the data set on NL43 wild type virus is 360 nM. Turning to `CCCCCCOC(=O)C(C)NP(=O)(OCC1OCC(n2cc(C)c(=O)[nH]c2=O)O1)Oc1ccccc1` (mixture of isomers) [Example 18], the EC50 in the data set with NL43 wild type virus was 740 nM and 410 nM. For `Cc1cn(C2COC(COP(=O)(NC(C)C(=O)OCc3ccc(F)cc3)Oc3ccccc3)O2)c(=O)[nH]c1=O` (mixture of isomers) [Example 19], in the data set with P4 CCR5-luc cells, the “Toxicity (Luciferase, 6d)” value was above 100.

As to `CCOC(=O)C(C)NP(=O)(OCC1OCC(n2cc(C)c(=O)[nH]c2=O)O1)Oc1ccc(Cl)cc1` (mixture of isomers) [Example 20], the “Toxicity (Luciferase, 6d)” value in the data set with P4 CCR5-luc cells is reported as above 100. Moreover, the EC50 in the data set with NL43 wild type virus is 270 nM. For `Cc1cn(C2COC(COP(=O)(NC(C)C(=O)OCc3ccccc3)Oc3ccccc3Cl)O2)c(=O)[nH]c1=O` (mixture of isomers) [Example 25] the same measures were above 100 and 260 nM. As for `CCCCOC(=O)C(C)NP(=O)(OCC1OCC(n2cc(C)c(=O)[nH]c2=O)O1)Oc1ccc(Br)cc1` (mixture of isomers) [Example 28], the “Toxicity (Luciferase, 6d)” value in the data set on P4 CCR5-luc cells is reported as above 100. In addition, in the data set on NL43 wild type virus, the EC50 came out at 1340 nM. With `COC(=O)C(CC(C)C)NP(=O)(OCC1OCC(n2cc(C)c(=O)[nH]c2=O)O1)Oc1ccccc1` (mixture of isomers) [Example 52], the “Toxicity (Luciferase, 6d)” value with P4 CCR5-luc cells was above 100. Besides, the EC50 in the data set with NL43 wild type virus amounted to 960 nM. Regarding `Cc1cn(C2COC(COP(=O)(NC(C)C(=O)OCc3ccccc3)Oc3ccc(F)cc3)O2)c(=O)[nH]c1=O` (mixture of isomers) [Example 67], the “Toxicity (Luciferase, 6d)” value in the data set with P4 CCR5-luc cells was above 100. In addition, the EC50 in the data set on NL43 wild type virus was found to be 1110 nM.

As for `Cc1cn(C2COC(COP(=O)(NC(C)C(=O)OC3CCCCC3)Oc3ccccc3)O2)c(=O)[nH]c1=O` (mixture of isomers) [Example 72], the “Toxicity (Luciferase, 6d)” value in the data set with P4 CCR5-luc cells is reported as above 100. The EC50 in the data set on NL43 wild type virus stood at 2120 nM. On to `Cc1cn(C2COC(COP(=O)(NC(C)C(=O)OC3CCCC3)Oc3ccccc3)O2)c(=O)[nH]c1=O` (mixture of isomers) [Example 73], for which the “Toxicity (Luciferase, 6d)” value with P4 CCR5-luc cells is above 100. Also, in the data set on NL43 wild type virus, the EC50 was 1030 nM. On the same counts, the results for `Cc1cn(C2COC(COP(=O)(NC(C)C(=O)OC3CCC3)Oc3ccc(F)cc3)O2)c(=O)[nH]c1=O` (mixture of isomers) [Example 86] are above 100 and 500 nM. `Cc1cn(C2COC(COP(=O)(NC(C)C(=O)OC3CCC3)Oc3ccccc3)O2)c(=O)[nH]c1=O` (mixture of isomers) [Example 95]: the “Toxicity (Luciferase, 6d)” value with P4 CCR5-luc cells is above 100. Moreover, in the data set on NL43 wild type virus, the EC50 amounted to 450 nM. On the same counts, the results for `Cc1cn(C2COC(COP(=O)(NC(C)C(=O)OCC3CC3)Oc3ccccc3)O2)c(=O)[nH]c1=O` (mixture of isomers) [Example 96] are above 100 and 330 nM.

For the compound `Cc1cn(C2COC(COP(=O)(NC(C)C(=O)OCC3CCC3)Oc3ccccc3)O2)c(=O)[nH]c1=O` (mixture of isomers) [Example 109], in the data set with P4 CCR5-luc cells, the “Toxicity (Luciferase, 6d)” value is reported as above 100. Also, the EC50 with NL43 wild type virus amounted to 710 nM. For `Cc1cn(C2COC(COP(=O)(NC(CC(C)C)C(=O)OCC3CC3)Oc3ccccc3)O2)c(=O)[nH]c1=O` (mixture of isomers) [Example 116], the “Toxicity (Luciferase, 6d)” value in the data set with P4 CCR5-luc cells is listed as above 100. The EC50 with NL43 wild type virus is 570 nM. In the case of `Cc1cn(C2COC(COP(=O)(NC(C)C(=O)OCc3ccccc3)Oc3ccccc3)O2)c(=O)[nH]c1=O` (mixture of isomers) [Example 119], in the data set on P4 CCR5-luc cells, the “Toxicity (Luciferase, 6d)” value is listed as above 100. Besides, the EC50 in the data set on NL43 wild type virus is 1700 nM.
